Laboratory results: patent US9403797B2, “5-(pyridin-2-yl-amino)-pyrazine-2-carbonitrile compounds and their therapeutic use” (Cancer Research Technology Limited, priority 2011, dated 2016)
Where two headings read alike, the source gives them in different places. One block for each molecule: values may come before it.

Columns and labels:
[1] = system: HT29 human colon carcinoma xenograft; assay: In Vivo Study 2: combination with gemcitabine in HT29 human colon carcinoma xenograft; set-up: species or system mouse; settings: for Tumour growth inhibition relative to controls / T/C vs. vehicle controls: day 24; for T/C vs. vehicle controls: tumour volumes; for Mean tumour volume (cm^3, mean ± SEM): day 24 after start of therapy, PAPC-A-01 75 mg/kg p.o., gemcitabine 100 mg/kg i.v.
Method: In Vivo Study 2: PAPC-A-01 in Combination with Gemcitabine in HT29 Human Colon Carcinoma Xenograft
Animals weighed 20.3±2.0 g at the start of the study. Handing and all experimental procedures were performed under sterile conditions in laminar flow hoods in accordance with UK Home Office, national and local ethical guidelines.
HT29 colon carcinoma cells from the American Type Culture Collection (ATCC, LGC Promochem, Middesex, UK) were harvested from tissue culture flasks and injected subcutaneously in the right flanks of mice (3 million cells per site). Once tumours were established (mean diameter 0.55±0.05 cm) mice were randomised to treatment groups (n=6) to receive (a) test compound (PAPC-A-01) (75 mg/kg), (b) gemcitabine (100 mg/kg), (c) a combination (PAPC-A-01) (75 mg/kg) and gemcitabine (100 mg/kg), or (d) relevant vehicles.
Clinical grade gemcitabine hydrochloride (GEMZAR, Eli Lilly, Newmarket, UK) was reconstituted in sterile 0.9% sodium chloride and aliquots frozen at −20° C. Gemcitabine was administered intravenously once weekly via a lateral tail vein on days 0 (day 5 after tumour cell implantation), 7 and 14. Test compound (PAPC-A-01) was dissolved in 10% DMSO and diluted out in 5% Tween 20, 85% saline. Test compound (PAPC-A-01) was administered by oral gavage on days 1, 2, 8, 9, 15 and 16. The control animals received both vehicles by the appropriate route on the designated days. The compounds were administered in a volume of 100 μL per 10 g body weight.
Animals were observed daily and body weights and tumours measured three times weekly. Two perpendicular tumour diameters were used to calculate volumes using the formula: V=4/3π[(d1+d2)/4]^3.
T/C values (volumes of treated tumours vs. controls) were calculated with respect to vehicle control tumours or those treated with gemcitabine alone, expressed as a percentage.

CHK1 = CHK1 (Homo sapiens (Human), UniProt O14757); assay: Inhibitor potency vs. CHK1 (Assay 1A DELFIA or Assay 1B Caliper format); format: biochemical
Sequence of CHK1 (O14757 whole entry): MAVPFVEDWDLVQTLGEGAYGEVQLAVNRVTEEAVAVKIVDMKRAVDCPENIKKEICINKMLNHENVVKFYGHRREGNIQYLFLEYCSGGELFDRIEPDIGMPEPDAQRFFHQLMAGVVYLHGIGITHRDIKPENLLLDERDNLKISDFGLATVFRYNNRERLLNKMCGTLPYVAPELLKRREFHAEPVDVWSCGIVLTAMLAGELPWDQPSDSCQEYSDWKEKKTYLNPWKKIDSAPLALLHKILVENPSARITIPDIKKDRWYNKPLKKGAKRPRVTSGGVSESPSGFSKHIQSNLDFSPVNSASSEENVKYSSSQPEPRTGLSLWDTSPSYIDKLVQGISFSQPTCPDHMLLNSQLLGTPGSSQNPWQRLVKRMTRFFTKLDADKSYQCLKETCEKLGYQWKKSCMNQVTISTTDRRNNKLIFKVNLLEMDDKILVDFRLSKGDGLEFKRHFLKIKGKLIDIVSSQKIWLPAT
Method: Assay 1A: Determination of Inhibitor Potency vs. CHK1 in DELFIA Assay Format
CHK1 kinase function was measured in a DELFIA® assay in order to monitor phosphorylation of a CDC25C peptide using a specific phospho antibody. […] The reaction mixture was incubated for 30 minutes at room temperature and then stopped by the addition of buffer (125 μL) containing 40 mM EDTA, 0.05% Tween 20, 0.1% BSA in TBS (10× concentrate, Sigma). An aliquot (100 μL) of the stopped reaction mixture was transferred to a black neutravidin-coated plate (Perbio) and incubated for 1 hour on a shaker (Titertek, Flow Laboratories) at room temperature. […] The plates were washed a further four times with wash buffer before the addition of enhancement solution (100 μL/well, PerkinElmer Life Sciences).
Assay 1B: Determination of Inhibitor Potency Vs. CHK1 in Caliper Assay Format
CHK1 kinase activity was measured in a microfluidic assay that monitors the separation of a phosphorylated product from its substrate. […] For each test compound a 50 μM stock concentration in 100% DMSO was used. […] The plate was sealed and centrifuged (1 minutes, 1000 rpm) before incubation for one hour at room temperature. The reaction was stopped by the addition of separation buffer (90 μL). […] IC50 values were calculated in GraphPad Prism5 using a non linear regression fit of the log (inhibitor) vs. response with variable slope equation.

CHK2 = CHK2 (Homo sapiens (Human), UniProt O96017); assay: Inhibitor selectivity for inhibition of CHK1 vs. CHK2 (Assay 2, CHK2 DELFIA assay); format: biochemical; settings: CHK2 IC50/CHK1 IC50
Sequence of CHK2 (O96017 whole entry): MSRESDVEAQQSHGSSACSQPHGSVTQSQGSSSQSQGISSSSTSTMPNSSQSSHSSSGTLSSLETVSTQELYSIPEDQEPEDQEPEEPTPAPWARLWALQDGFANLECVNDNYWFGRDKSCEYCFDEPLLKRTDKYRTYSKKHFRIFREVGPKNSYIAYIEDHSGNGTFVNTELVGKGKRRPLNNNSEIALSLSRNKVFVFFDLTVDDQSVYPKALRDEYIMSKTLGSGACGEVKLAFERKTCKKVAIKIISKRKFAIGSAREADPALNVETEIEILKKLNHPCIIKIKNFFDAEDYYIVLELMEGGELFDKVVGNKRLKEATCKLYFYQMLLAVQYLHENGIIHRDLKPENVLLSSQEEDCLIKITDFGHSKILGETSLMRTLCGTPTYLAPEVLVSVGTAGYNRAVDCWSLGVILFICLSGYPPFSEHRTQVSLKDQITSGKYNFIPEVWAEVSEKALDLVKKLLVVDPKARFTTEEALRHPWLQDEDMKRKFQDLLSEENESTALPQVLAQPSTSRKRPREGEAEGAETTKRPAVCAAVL
Method: The plates were washed a further four times with wash buffer before the addition of enhancement solution (100 μL/well, PerkinElmer Life Sciences).

TH-MYCN neuroblastoma = assay: In Vivo Study 1: transgenic MYCN-driven neuroblastoma model; set-up: species or system mouse
Method: In Vivo Study 1: PAPC-A-01 in Transgenic MYCN-Driven Neuroblastoma Model
Spontaneous neuroblastomas arising in hemizygous mice transgenic for TH-MYCN (human MYCN under the control of the rat tyrosine hydroxylase promoter) were detected by abdominal palpation. Sequential animals with well-established tumours (30-70 days of age) were randomised to receive either test compound (PAPC-A-01) or vehicle until 8-9 mice per group were accrued. The test compound (PAPC-A-01) was administered as a single agent at 100 mg/kg p.o. daily for 7 consecutive days by oral gavage (100 μL/10 g body weight) and controls received an equivalent volume of vehicle (10% DMSO, 5% Tween 20, 85% saline). Neuroblastoma size was assessed by MRI and by the mass of tumours dissected from the abdominal cavity at the end of therapy.
^1H MRI was performed on a 7T Bruker horizontal bore microimaging system (Bruker Instruments, Ettlingen, Germany) using a 3 cm birdcage coil. Anaesthesia was induced a combination of fentanyl citrate (0.315 mg/mL) plus fluanisone (10 mg/mL) (Hypnorm, Janssen Pharmaceutical, Oxford, UK) and midazolam (5 mg/mL) (Roche, Welwyn Garden City, UK) and water (1:1:2). Animal body temperature was maintained by a warm air blower through the magnet bore.
Anatomical T2-weighted coronal and transverse images were acquired from twenty contiguous 1 mm-thick coronal slices through the mouse abdomen, using a rapid acquisition with refocused echoes (RARE) sequence with 4 averages of 128 phase encoding steps over a 3×3 cm field of view, two echoes of 36 and 132 ms, a TR of 4.5 s and a RARE factor of 8. Following MRI, the mice were left to recover on a heat mat for 24 hours. Tumour volumes were measured using segmentation from regions of interest drawn on every slice from the coronal T2 weighted images containing tumour using in-house software (ImageView, working under IDL, ITT, Boulder, Colo., USA).

in vivo = settings: female, BALB/c, mouse, Oral bioavail. (plasma concentration, 1 hour following 10 mg/kg p.o.)
HT29 cells = assay: Mitosis Inhibition Assay (MIA), checkpoint abrogation; settings: Homo sapiens, HT-29, read-out: MIA IC50
[2] = Comparative oral bioavailability by limited sampling in vivo pharmacokinetics; settings: female, BALB/c, mouse, plasma, 10 mg/kg, Oral bioavail. (plasma concentration, 1 hour following 10 mg/kg p.o.), female BALB/c mice, expressed relative to 10 mg/kg p.o.
[3] = Assay 1A (DELFIA) or Assay 1B (Caliper), read-out: CHK1 IC50

Structure (SMILES): Nc1ccn([C@@H]2O[C@H](CO)[C@@H](O)C2(F)F)c(=O)n1 [Gemcitabine, reference compound]
Tumour growth inhibition relative to controls [1]: approximately 20% | T/C vs. vehicle controls [1]: 80.8% | Mean tumour volume (cm^3, mean ± SEM) [1]: 0.888 ± 0.188 cm^3

Structure (SMILES): COc1cc(Nc2cnc(C#N)c(O[C@H](C)CN(C)C)n2)ncc1-c1cnn(C)c1 [PAPC-A-01, (R)-3-((1-(Dimethylamino)propan-2-yl)oxy)-5-((4-methoxy-5-(1-methyl-1H-pyrazol-4-yl)pyridin-2-yl)amino)pyrazine-2-carbonitrile]
IC50 (CHK1): < 20 nM | IC50 (CHK1; [3]): 6 nM | CHK1 vs. CHK2 selectivity (CHK2): 540-fold | T/C (tumour weight) (TH-MYCN neuroblastoma; 100 mg/kg p.o. daily for 7 days): 13.4% | MR imaging in individual mice, pre-treatment and on day 7 (TH-MYCN neuroblastoma; 7 day treatment period, 100 mg/kg p.o. daily): tumour regression | Mean weight of tumours at the end of the study (TH-MYCN neuroblastoma; mean±SD, 100 mg/kg p.o. daily for 7 days, control 2.1±0.7 g): 0.3 ± 0.2 g | Tumour volume (MRI) (TH-MYCN neuroblastoma; one mouse, following 7 days treatment, 100 mg/kg p.o. daily, pre-treatment volume 1960 mm^3): 417 mm^3 | Tumour growth inhibition relative to controls [1]: no growth inhibition | T/C vs. vehicle controls [1]: 101.4% | Mean tumour volume (cm^3, mean ± SEM) [1]: 1.114 ± 0.257 cm^3

Structure (SMILES): C[C@H](CN(C)C)Oc1nc(Nc2cc(N(C)C)c(-c3cnn(C)c3)cn2)cnc1C#N [PAPC-A-03, (R)-5-((4-(Dimethylamino)-5-(1-methyl-1H-pyrazol-4-yl)pyridin-2-yl)amino)-3-((1-(dimethylamino)propan-2-yl)oxy)pyrazine-2-carbonitrile]
IC50 (CHK1; [3]): < 20 nM

Structure (SMILES): CNc1cc(Nc2cnc(C#N)c(O[C@H](C)CN(C)C)n2)ncc1C1CC1 [PAPC-A-09, (R)-5-((5-Cyclopropyl-4-(methylamino)pyridin-2-yl)amino)-3-((1-(dimethylamino)propan-2-yl)oxy)pyrazine-2-carbonitrile]
concentration at 1 h (in vivo): ≥ 10 nM

Structure (SMILES): CNc1cc(Nc2cnc(C#N)c(O[C@H](C)CN(C)C)n2)ncc1C(=O)OC [PAPC-A-10, (R)-Methyl 6-((5-cyano-6-((1-(dimethylamino)propan-2-yl)oxy)pyrazin-2-yl)amino)-4-(methylamino)nicotinate]
IC50 (CHK1): < 20 nM

Structure (SMILES): COc1cc(Nc2cnc(C#N)c(O[C@@H]3CCN(C)C3)n2)ncc1-c1cnn(C)c1 [PAPC-B-02, (R)-5-((4-Methoxy-5-(1-methyl-1H-pyrazol-4-yl)pyridin-2-yl)amino)-3-((1-methylpyrrolidin-3-yl)oxy)pyrazine-2-carbonitrile]
IC50 (CHK1): < 20 nM

Structure (SMILES): CNc1cc(Nc2cnc(C#N)c(O[C@@H]3CCN(C)C3)n2)ncc1-c1cnn(C)c1 [PAPC-B-05, (R)-5-((5-(1-Methyl-1H-pyrazol-4-yl)-4-(methylamino)pyridin-2-yl)amino)-3-((1-methylpyrrolidin-3-yl)oxy)pyrazine-2-carbonitrile]
IC50 (CHK1): < 20 nM

Next, values leading:

IC50 (CHK1): < 20 nM
Structure (SMILES): CNc1cc(Nc2cnc(C#N)c(O[C@H](C)CN(C)C)n2)ncc1C#CC(C)(C)O [PAPC-A-08, (R)-3-((1-(Dimethylamino)propan-2-yl)oxy)-5-((5-(3-hydroxy-3-methylbut-1-yn-1-yl)-4-(methylamino)pyridin-2-yl)amino)pyrazine-2-carbonitrile]

IC50 (CHK1): < 20 nM
Structure (SMILES): COc1cc(Nc2cnc(C#N)c(O[C@@H]3CCNC3)n2)ncc1-c1cnn(C)c1 [PAPC-B-01, (R)-5-((4-Methoxy-5-(1-methyl-1H-pyrazol-4yl)pyridin-2-yl)amino)-3-(pyrrolidin-3-yloxy)pyrazine-2-carbonitrile]

IC50 (HT29 cells): < 500 nM
Structure (SMILES): CNc1cc(Nc2cnc(C#N)c(O[C@@H]3CCNC3)n2)ncc1-c1cnn(C)c1 [PAPC-B-03, (R)-5-((5-(1-Methyl-1H-pyrazol-4-yl)-4-(methylamino)pyridin-2-yl)amino)-3-(pyrrolidin-3-yloxy)pyrazine-2-carbonitrile]

IC50 (HT29 cells): < 500 nM
Structure (SMILES): CNc1cc(Nc2cnc(C#N)c(O[C@H]3CCNC3)n2)ncc1-c1cnn(C)c1 [PAPC-B-04, (S)-5-((5-(1-Methyl-1H-pyrazol-4-yl)-4-(methylamino)pyridin-2-yl)amino)-3-(pyrrolidin-3-yloxy)pyrazine-2-carbonitrile]

IC50 (CHK1): < 20 nM | concentration at 1 h (in vivo): ≥ 10 nM
Structure (SMILES): CNc1cc(Nc2cnc(C#N)c(O[C@H]3CCN(C)C3)n2)ncc1-c1cnn(C)c1 [PAPC-B-06, (S)-5-((5-(1-Methyl-1H-pyrazol-4-yl)-4-(methylamino)pyridin-2-yl)amino)-3-((1-methylpyrrolidin-3-yl)oxy)pyrazine-2-carbonitrile]

IC50 (CHK1; [3]): < 20 nM | concentration at 1 h [2]: ≥ 10 nM
Structure (SMILES): CNc1cc(Nc2cnc(C#N)c(O[C@@H]3CCNC3)n2)ncc1C#CC(C)(C)O [PAPC-B-08, (R)-5-((5-(3-Hydroxy-3-methylbut-1-yn-1-yl)-4-(methylamino)pyridin-2-yl)amino)-3-(pyrrolidin-3-yloxy)pyrazine-2-carbonitrile]

IC50 (CHK1): < 20 nM
Structure (SMILES): COC(=O)c1cnc(Nc2cnc(C#N)c(O[C@@H]3CCNC3)n2)cc1N(C)C [PAPC-B-11, (R)-Methyl 6-((5-cyano-6-(pyrrolidin-3-yloxy)pyrazin-2-yl)amino)-4-(dimethylamino)nicotinate]
